Measured values taken from patent publication US20190216891A1, “METHOD FOR MODULATING MYELINATION” (Yeda Research and Development Co., Ltd., priority 2016, published 2019).
“Also recorded” adds a separate entry of the source.

What was measured:
Format in all cases: cell-based, mouse
wild type OPC cultures = assay: Oligodendrocyte differentiation in wild type OPC cultures (PLP and O4 immunolabeling); conditions: wild type OPC cultures grown four days with 1mM IBMX
Description: A. Immunolabeling of wild type OPC cultures grown for four days in the absence (Control) or presence of 1mM 3-isobutyl-1-methylxanthine (IBMX) using antibodies to PLP and O4. Dapi was used to label the nuclei. Scale bar, 50 μm. B. Percentage of PLP-positive oligodendrocytes among the total O4-positive cells (**P<0.01, t-test, n=3 cultures). Bars represent mean±SEM.
Immunofluorescence and Immunoblotting For immunohistochemistry, mice were anesthetized and perfused with 2% PFA/PBS. Brains and optic nerves were isolated and post fixed on ice for 15 min, followed by 30% sucrose/ PBS at 4° C. overnight. Tissues were embedded in OCT and sectioned. Sections were permeabilized in methanol at −20° C. for 5 min. Immunostaining of GPR37 was carried out using 2%PFA-perfused mouse brain sections that were permeabilized with cold acetone and blocked with 5% fish gelatin and 0.5% Triton-X100 at RT for 1 hr. For immunocytochemistry, cells were fixed with 4% PFA/ PBS for 15min at room temperature. For O4 staining, live cells were incubated with medium containing the O4 antibody at 37° C. for 45min before fixation. […] Western blot analysis was done using OPC cultures lysed in loading buffer and chemiluminescence was detected using the ChemiDoc MP System (Bio-Rad). […]

[1] = test system: oligodendrocytes co-cultured with DRG neurons; assay: Number of Olig2 cells in oligodendrocyte/DRG neuron co-cultures; conditions: both genotypes (WT and Gpr37−/−); 6 days treatment, fixed at DIV7
Description: (§1) FIGS. 11A-B illustrate that EPE blocks the nuclear translocation of pERK in Gpr37 null oligodendrocytes. A. Cultured OPCs isolated from WT and Gpr37^−/− mice were grown for 3 days (DIV2-DIVS) in the presence or absence (control) of EPE, followed by immunolabeling with antibodies to pERK and PLP. The nuclei were labeled with Dapi. PLP and pERK immunoreactivity are shown in separate images along with the Dapi signal. Higher magnification of the nucleus is shown in the insets in each panel. […] Scale bar, 50 μm. […] Cultures were grown in the absence (DME), or presence of EPE, PLX4032, or DMSO as control for 6 days, and then fixed at DIV7 and labeled with antibodies to Olig2. The number of positive cells per field of view is shown in the graph. Bars represent mean±SEM (n=3 different cultures per each genotype; 10 fields of view were analyzed for each culture).
Immunofluorescence and Immunoblotting For immunohistochemistry, mice were anesthetized and perfused with 2% PFA/PBS. Brains and optic nerves were isolated and post fixed on ice for 15 min, followed by 30% sucrose/ PBS at 4° C. overnight. Tissues were embedded in OCT and sectioned. Sections were permeabilized in methanol at −20° C. for 5 min. […] Western blot analysis was done using OPC cultures lysed in loading buffer and chemiluminescence was detected using the ChemiDoc MP System (Bio-Rad). […]

[2] = test system: oligodendrocytes co-cultured with DRG neurons; assay: OPC/DRG neuron co-cultures: PLP-positive oligodendrocytes associated with axonal Caspr clustering
From the text: FIGS. 5A-H illustrate that Gpr37-dependent inhibition of oligodendrocyte differentiation is mediated by ERK phosphorylation and nuclear translocation. A. Immunolabeling of sagittal brain sections of P12 brain stems from wild type (WT) and KO (Gpr37^−/−) mice using antibodies to phosphorylated ERK (pERK) and Olig2. B. The number of pERK and Olig2 positive cells in Gpr37^−/− compared to WT brainstem (*P<0.05, n=5 images from two mice per genotype). C. Western blot analysis of purified OPC cultures at DIV7 (three cultures per each genotype are shown). Blots were incubated with antibodies to pERK or general ERK (ERK) as indicated. D. Relative value of pERK intensity normalized by general ERK (p=0.02, n=7 cultures each genotype). E. pERK is present in the nucleus of oligodendrocytes lacking Gpr37. […] (* p<0.05, n=3 different primary cultures for each genotype; 100 PLP-positive oligodendrocytes were counted per each culture). […] H. Quantitation of the results showing the fold change in the percent of PLP-positive cells that associate with axonal Caspr immunoreactivity in all samples compare to the non-treated wild type cultures. […]
Immunofluorescence and Immunoblotting For immunohistochemistry, mice were anesthetized and perfused with 2% PFA/PBS. […] Western blot analysis was done using OPC cultures lysed in loading buffer and chemiluminescence was detected using the ChemiDoc MP System (Bio-Rad). […]

[3] = test system: nuclear translocation of ERK1/2; assay: Nuclear localization of pERK in cultured OPCs (immunolabeling pERK, PLP, Dapi); conditions: Gpr37−/− OPCs (DIV7)
Description: as §1
FIGS. 12A-D illustrate the involvement of cAMP in Gpr37 signaling in oligodendrocytes. A-B. Absence of Gpr37 results in increased levels of cAMP in mice brain (A) and cultured OPCs (B). Intracellular cAMP was extracted from P70 mice brains (*P<0.05, t-test; n=6 WT and n=7 KO mice), or from DIV5 cultured OPCs (*P<0.01, t-test; n=3 different OPC primary cultures of each genotype) and detected by ELISA. C. Adenylate cyclase inhibition prevents the nuclear translocation of pERK in Gpr37^−/− OPCs. Cultured wild type (WT) and Gpr37^−/− OPCs (DIV7) were left untreated (control) or treated with the adenylyl cyclase inhibitor SQ22536 (0.1 mM) for 2 hours in their growth medium. Cells were then fixed and labeled with Dapi to mark their nuclei, and with antibodies to PLP and pERK. […] Bars show mean±SEM (*P<0.01, t-test; n=3 different primary cultures for each genotype; 50 PLP-positive cells were counted per each culture).
FIGS. 13A-B illustrate that inhibition of Epac activity attenuates nuclear translocation of ERK1/2 in oligodendrocytes lacking GPR37. […] Bars show mean±SEM (*P<0.05, **P<0.01, t-test; n=3 different primary cultures for each genotype; 100 PLP-positive cells were counted per each culture). […]

CC(C)Cn1c(=O)n(C)c(=O)c2[nH]cnc21 [IBMX, 3-isobutyl-1-methylxanthine]
oligodendrocyte differentiation (percentage of PLP-positive oligodendrocytes among total O4-positive cells) (wild type OPC cultures): enhances the differentiation; also recorded: enhances oligodendrocyte differentiation

CCCS(=O)(=O)Nc1ccc(F)c(C(=O)c2c[nH]c3ncc(-c4ccc(Cl)cc4)cc23)c1F [PLX4032]
number of Olig2 cells (per field of view) [1]: do not affect
number of PLP-positive oligodendrocytes associated with intense axonal clustering of Caspr ([2]; Gpr37−/− oligodendrocytes with wild type DRG neurons, 6 days in 10 μM EPE or 1 μM PLX4032, vs DMSO control): completely abolished; also recorded: significantly low number
PLP-positive oligodendrocytes associated with axonal clustering of Caspr ([2]; wild type cultures, 6 days in 10 μM EPE or 1 μM PLX4032): no effect

CC(C)(C)c1cc(C(=O)/C(C#N)=N/Nc2cccc(Cl)c2)no1 [ESI-09]
number of oligodendrocytes displaying nuclear localization of pERK (ERK1/2) ([3]; ESI-09 1 μM for 2 hours, vs DMSO): significant decrease; also recorded: reduced to equivalent level of wild type cells

Nc1ncnc2c1ncn2C1CCCO1 (stereo not shown) [SQ 22536]
number of oligodendrocytes displaying nuclear localization of pERK (ERK1/2) ([3]; SQ22536 0.1 mM for 2 hours): significant decrease
number of oligodendrocytes displaying nuclear localization of pERK (ERK1/2) ([3]; SQ22536 0.1 mM for 2 hours, listed as SQ22536): reduced to equivalent levels of wild type cells
